Test system: HIV-1 YU-2 strain
Test: HIV-1 replication measured by p24 production in infected PBMCs
Assay type: cell-based
Conditions: Human immunodeficiency virus 1, PBMC; 5 μM ABX464; PBMCs from 6 donors infected with YU-2 strain; read-out: inhibition of viral replication (p24 production)
Procedure: Buffy coats from HIV-negative individuals were obtained from the local blood donation center in Centre de transfusion sanguine Montpellier. Human peripheral blood mononuclear cells (PBMCs) were isolated by Ficoll (Histopaque, Sigma) gradient centrifugation. CD4+ and CD8+ T cells were purified from PBMCs after Ficoll gradient centrifugation by Human CD4+ beads positive selection and CD8+ beads positive selection, respectively (Miltenyi). PBMCs, CD4+ and CD8+ T cells were grown at 37° C. and 5% CO2 to a density of 1.5×10^6 cells/ml in RPMI GlutaMAX medium (Life Technologies) supplemented with 10% fetal calf serum (FCS) (Thermo Fisher), 40 U/ml of IL2 (PeproTech) and 5 μg/mL of PHA (Roche) for 2 days. […]
PBMCs from 6 HIV-negative donors were infected with the YU-2 strain, followed by treatment with ABX464. […] To highlight potential new splicing events induced by ABX464, we used a custom bioinformatics pipeline with the main step involving the assembly of putative transcripts from targeted RNA sequencing reads to construct contigs (Illumina paired-end 2×75 bp) (FIGS. 6 A and B). […] The HIV profiling datasets used in our analysis yielded high sequence coverage (2 to 30 million reads for the 9 kb genome), allowing deep quantification of HIV splice variants.

## FC(F)(F)Oc1ccc(Nc2ccc3cccc(Cl)c3n2)cc1 [ABX464, 8-chloro-N-(4-(trifluoromethoxy)phenyl)quinolin-2-amine]
  inhibition at 5 µM: > 70%

— patent US20220145406A1, “BIOMARKERS, AND USES IN TREATMENT OF VIRAL INFECTIONS, INFLAMMATIONS, OR CANCER” (ABIVAX, priority 2018, published 2022)
